Reference: patent publication US10562935B2, “Stapled peptides and uses thereof” (London Health Sciences Centre Research Inc., priority 2015, dated 2020)
Bridges are numbered along the chain shown (N, C = ends).

Assays:
[1] = Circular dichroism (CD) spectroscopy of HABD2 peptides in Milli-Q water (Example 1); format: physicochemical
From the text: In addition, a large mean residue ellipticity indicates greater α-helical character. […] This was predicted to be the case, as there is a lack of contributing residues that might form a hydrophobic core, thereby helping to stabilize the secondary structure of the linear peptide. For this reason, bridges were introduced into the peptides. […] The differences in α-helicity induced by the bridges placed at different points within each peptide may be due to the differences in their primary sequences. Specifically, two amino acids (at the i and i+4 position) have to be replaced in order to form the lactam bridge. In compound 133, leucine was replaced at both the i and i+4 position; while in compound 136, glutamine was replaced at the i position and aspartic acid was replaced at i+4. Leucine and glutamine are proposed to be helix-stabilizing residues.
A larger portion of the RHAMM protein was used as the reference for α-helical character of the truncated peptides. 7 kDa RHAMM (SEQ ID NO: 1) is a mini protein that is composed of 62 amino acids, which was derived from the C-terminus of the full-length RHAMM sequence. It contains both HABDs, and is predicted to have almost complete α-helix shape, similar to that of native full-length RHAMM.
A peptide's α-helicity can be quantified using equations 1-3: fH=[([θ]obs222−[θ]c)/([θ]max222−[θ]c)] (Equation 1) [θ]c=2220+53T (Equation 2) [θ]max222=(−44000+250T)(1−k/N) (Equation 3) where fH is the ratio of the average number of helical hydrogen bonds divided by the total number of hydrogen bonds that can be found in a peptide, T is the temperature in degrees Celsius, N is the number of residues in the peptide and k is a constant of ellipticity when 100% of the structure is α-helical (3 for carboxyamidated peptides).
Milli-Q water was chosen as the solvent in which all peptides would be dissolved for CD spectroscopy, as it is a UV invisible solvent, which is a requirement of the analytical technique, and it represents RHAMM's natural environment in the body. Luo and Baldwin [18] stated that when peptides are taken out of their native protein sequence, they usually show little to no helical formation in water alone. For this reason, TFE/H2O solutions are commonly used in studies to observe the α-helix characteristics, and may improve the helical nature of the peptides observed here. However, a helix-stabilizing solvent, such as TFE, would not be as contextually relevant, as there are no solvent stabilizing effects in the body. Thus use of TFE would tend to produce skewed results and not be representative of the peptide's natural behavior.

[2] = system: RHAMM-overexpressing (LR21) cells; experiment: Cell migration assay (Boyden chamber, Chemicon ECM510); format: cell-based; details: for inhibition of cell migration (in words): 10 ng/mL peptide, 20 hours, compared to 30% serum control; for Migration (% inhib.): % inhibition relative to positive control
In short: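 Serum-starved LR21 cells (7.5×10^4) placed in the upper Boyden chamber with or without 10 ng/mL peptide, with 30% FBS in DMEM as lower-chamber chemoattractant. Cells crossing the membrane after 20 h quantified by CyQUANT GR fluorescence (480/520 nm); mean of n=3, compared with 30% serum control.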

| Substance | [θ]222/[θ]208 ratio of ellipticities ([1]; 0.5 mM in Milli-Q water) | fH fraction helicity ([1]; 0.5 mM in Milli-Q water, equations 1-3) | α-helical character by CD (in words) ([1]; Milli-Q water) | Molar ellipticity [θ]192 ([1]; λ = 192 nm, 0.5 mM in Milli-Q water) | Molar ellipticity [θ]208 ([1]; λ = 208 nm, 0.5 mM in Milli-Q water) | Molar ellipticity [θ]222 ([1]; λ = 222 nm, 0.5 mM in Milli-Q water) | inhibition of cell migration (in words) [2] | Migration (% inhib.) [2] |
| --- | --- | --- | --- | --- | --- | --- | --- | --- |
| Ac-VSKLRSQLVKRKQN-NH2 [Compound 132] | 0.27 | 0.13 | minimal α-helical character | −433.48 deg cm^2 dmol^−1 residue^−1 | −4944.38 deg cm^2 dmol^−1 residue^−1 | −1339.76 deg cm^2 dmol^−1 residue^−1 | significantly inhibit cell migration | 36 % inhib. |
| Ac-(cyclo-4,8)-VSK[ERSQK]VKRKQN-NH2 (Ac-VSKERSQKVKRKQN-NH2; lactam 4-8; SMILES CC(=O)N[C@H](C(=O)N[C@@H](CO)C(=O)N[C@@H](CCCCN)C(=O)N[C@H]1CCC(=O)NCCCC[C@@H](C(=O)N[C@H](C(=O)N[C@@H](CCCCN)C(=O)N[C@@H](CCCNC(=N)N)C(=O)N[C@@H](CCCCN)C(=O)N[C@@H](CCC(N)=O)C(=O)N[C@@H](CC(N)=O)C(N)=O)C(C)C)NC(=O)[C@H](CCC(N)=O)NC(=O)[C@H](CO)NC(=O)[C@H](CCCNC(=N)N)NC1=O)C(C)C) [Compound 150] | – | – | – | – | – | – | significantly inhibit cell migration | 0 % inhib. |
| Ac-(cyclo-7,11)-VSKLRS[ELVKK]KQN-NH2 (Ac-VSKLRSELVKKKQN-NH2; lactam 7-11; SMILES CC(=O)N[C@H](C(=O)N[C@@H](CO)C(=O)N[C@@H](CCCCN)C(=O)N[C@@H](CC(C)C)C(=O)N[C@@H](CCCNC(=N)N)C(=O)N[C@@H](CO)C(=O)N[C@H]1CCC(=O)NCCCC[C@@H](C(=O)N[C@@H](CCCCN)C(=O)N[C@@H](CCC(N)=O)C(=O)N[C@@H](CC(N)=O)C(N)=O)NC(=O)[C@H](CCCCN)NC(=O)[C@H](C(C)C)NC(=O)[C@H](CC(C)C)NC1=O)C(C)C) [Compound 153] | – | – | – | – | – | – | – | 0 % inhib. |
| Ac-(cyclo-10-14, cyclo-15-19)-KIKHVVKLK[KENSE][EKSEK]SKLRSQLVKRK-NH2 [Compound 269] | – | – | – | – | – | – | significantly inhibit cell migration | 61 % inhib. |
| Ac-(cyclo-7-11, cyclo-28-32)-NLKQKI[EHVVK]LKDENSQLKSEVSKLR[EQLVK]RKQN-NH2 (Ac-NLKQKIEHVVKLKDENSQLKSEVSKLREQLVKRKQN-NH2; lactam 7-11, 28-32; SMILES CC[C@H](C)[C@H](NC(=O)[C@H](CCCCN)NC(=O)[C@H](CCC(N)=O)NC(=O)[C@H](CCCCN)NC(=O)[C@H](CC(C)C)NC(=O)[C@H](CC(N)=O)NC(C)=O)C(=O)N[C@H]1CCC(=O)NCCCC[C@@H](C(=O)N[C@@H](CC(C)C)C(=O)N[C@@H](CCCCN)C(=O)N[C@@H](CC(=O)O)C(=O)N[C@@H](CCC(=O)O)C(=O)N[C@@H](CC(N)=O)C(=O)N[C@@H](CO)C(=O)N[C@@H](CCC(N)=O)C(=O)N[C@@H](CC(C)C)C(=O)N[C@@H](CCCCN)C(=O)N[C@@H](CO)C(=O)N[C@@H](CCC(=O)O)C(=O)N[C@H](C(=O)N[C@@H](CO)C(=O)N[C@@H](CCCCN)C(=O)N[C@@H](CC(C)C)C(=O)N[C@@H](CCCNC(=N)N)C(=O)N[C@H]2CCC(=O)NCCCC[C@@H](C(=O)N[C@@H](CCCNC(=N)N)C(=O)N[C@@H](CCCCN)C(=O)N[C@@H](CCC(N)=O)C(=O)N[C@@H](CC(N)=O)C(N)=O)NC(=O)[C@H](C(C)C)NC(=O)[C@H](CC(C)C)NC(=O)[C@H](CCC(N)=O)NC2=O)C(C)C)NC(=O)[C@H](C(C)C)NC(=O)[C@H](C(C)C)NC(=O)[C@H](Cc2c[nH]cn2)NC1=O) [Compound 278] | – | – | – | – | – | – | significantly inhibit cell migration | 45 % inhib. |
